Marks after values point to notes of the source that are not given here.
Test: Randomized, double-blind, placebo-controlled dose-response study of gemcabene in patients with HDL-C <35 mg/dL; percent change from baseline in serum lipids and apolipoproteins
Format: in vivo, human
Protocol: A randomized, double-blind, placebo-controlled, parallel group, dose-response, multicenter study was conducted. The study was conducted at 11 centers in the United States and one center in Canada. Institutional Review Board approval was obtained at each center and every patient was informed of the study, freely consented to participate and signed an informed consent document. Following a 6-week, single-blind placebo, dietary lead in period conducted according to National Cholesterol Education Program Step 1 Diet, eligible patients with HDL-C level <35 mg/dL (0.9 mmol/L) were stratified according to whether mean serum TG levels, calculated from measures at 2 and 4 weeks prior to randomization, were <200 mg/dL (2.3 mmol/L) or >200 mg/dL (2.3 mmol/L). Within each TG stratum, patients were randomized to receive either 150, 300, 600, or 900 mg of gemcabene or placebo daily once daily for 12 weeks.
Eligible patients were women of non-childbearing potential (naturally postmenopausal or surgically sterilized) or men 18 to 80 years of age with a baseline serum HDL-C levels <35 mg/dL. Patients were excluded if they had creatine kinase serum levels >3 times the upper limit of normal, a body mass index >35 kilogram/meter^2, uncontrolled hypertension defined as sitting diastolic blood pressure >95 mm Hg whether taking or not taking an acceptable antihypertensive medication, uncontrolled diabetes mellitus (Hemoglobin A1C>10%), hepatic dysfunction including asparate aminotransferase or alanine aminotransferase levels >2 times the upper limits of normal, renal dysfunction as defined by blood urea nitrogen or creatinine levels >2 times upper limits of normal or uncontrolled hypothyroidism (thyroid stimulating hormone >1.5 times the upper limits of normal). Also excluded were those with a prior history of known gall bladder disease or pancreatitis, a history of consuming >14 alcoholic drinks per week, or those with a known hypersensitivity to lipid-altering drugs. Patients who had myocardial infarction, severe or unstable angina pectoris, coronary artery bypass graft or any other cardiovascular event requiring hospitalization within the last 3 months were also excluded from the study. Patients were not permitted any other lipid-altering drugs during the course of the study and if on prestudy lipid-altering drug therapy, were required to undergo an additional 4-week washout period. Use of isotretinoin, insulin, warfarin, immunosuppressive agents and intermittent systemic steroids were also prohibited. Alpha-blockers, β-blockers, hormone replacement therapy and oral hypoglycemic agents were permitted provided that their use was stable for at least 3 months.
The primary efficacy parameter was percent change from baseline in serum HDL-C levels at the study subject's last visit. Other efficacy parameters included percent change from baseline in serum LDL-C, TG, apolipoproteins A-I, A-II, B, C-III, E, and non-HDL-C levels. Additionally, nuclear magnetic resonance (NMR) spectroscopy was used to assess VLDL, HDL and LDL particle sizes as well as the total concentration of LDL particles. For HDL-C, non-HDL-C, LDL-C, and TG levels, the baseline value was the mean plasma value of two measurements, one obtained 2 weeks prior to randomization and one obtained at randomization. For all other parameters, the baseline value was defined as the single measurement obtained at randomization.
All blood samples were collected following a 12-hour fast and analyzed by Medical Research Laboratories in Highland Heights, Ky. Blood samples for routine chemistry and hematology profiles were measured at screening, randomization and 4, 8, and 12 weeks following the start of study medication. Basic lipid profiles (HDL-C, LDL-C, and TG) were measured at screening, 2 and 4 weeks prior to starting study medication (during the baseline phase), at randomization, and at weeks 2, 4, 8 and 12 of the treatment phase. […]

[1] = patients with TG <200 mg/dL, 150 mg once daily for 12 weeks, mean ± SE
[2] = patients with TG <200 mg/dL, 150 mg once daily for 12 weeks, median (min, max)
[3] = patients with TG <200 mg/dL, 300 mg once daily for 12 weeks, mean ± SE
[4] = patients with TG <200 mg/dL, 300 mg once daily for 12 weeks, median (min, max)
[5] = patients with TG <200 mg/dL, 600 mg once daily for 12 weeks, mean ± SE
[6] = patients with TG <200 mg/dL, 600 mg once daily for 12 weeks, median (min, max)
[7] = patients with TG <200 mg/dL, 900 mg once daily for 12 weeks, mean ± SE
[8] = patients with TG <200 mg/dL, 900 mg once daily for 12 weeks, median (min, max)
[9] = patients with TG ≧200 mg/dL, 150 mg once daily for 12 weeks, mean ± SE
[10] = patients with TG ≧200 mg/dL, 150 mg once daily for 12 weeks, median (min, max)
[11] = patients with TG ≧200 mg/dL, 300 mg once daily for 12 weeks, mean ± SE
[12] = patients with TG ≧200 mg/dL, 300 mg once daily for 12 weeks, median (min, max)
[13] = patients with TG ≧200 mg/dL, 600 mg once daily for 12 weeks, mean ± SE
[14] = patients with TG ≧200 mg/dL, 600 mg once daily for 12 weeks, median (min, max)
[15] = patients with TG ≧200 mg/dL, 900 mg once daily for 12 weeks, mean ± SE
[16] = patients with TG ≧200 mg/dL, 900 mg once daily for 12 weeks, median (min, max)
[17] = patients with mean baseline TG≧2200 mg/dL (so in the source), 150 mg dose

CC(C)(CCCCOCCCCC(C)(C)C(=O)[O-])C(=O)[O-].[Ca+2] [gemcabene, 6-(5-carboxy-5-methyl-hexyloxy)-2,2-dimethylhexanoic acid monocalcium salt]
levels of apolipoprotein B (both TG strata, 600 and 900 mg doses): corresponding decreases | reduction of non-HDL-C levels (both TG strata, higher doses): up to 18% | Percent Change from Baseline at Last Visit, Apolipoprotein A-II [1]: 5.5 ± 2.6 % | Percent Change from Baseline at Last Visit, Apolipoprotein CIII [1]: −7.0 ± 9.2% | Percent Change from Baseline at Last Visit, HDL-C [1]: 6.2 ± 3.1% | Percent Change from Baseline at Last Visit, LDL-C [1]: −2.6 ± 4.4% | Percent Change from Baseline at Last Visit, NonHDL-C [1]: −2.5 ± 4.0% | Percent Change from Baseline at Last Visit, Apolipoprotein A-I [2]: 7.3 (−7, 40) % | Percent Change from Baseline at Last Visit, Apolipoprotein B [2]: −0.7 (−17, 13) % | Percent Change from Baseline at Last Visit, Apolipoprotein E [2]: −7.7 (−42, 15) % | Percent Change from Baseline at Last Visit, TG [2]: −0.4 (−33, 32) % | Percent Change from Baseline at Last Visit, Apolipoprotein A-II [3]: 3.3 ± 2.8% | Percent Change from Baseline at Last Visit, Apolipoprotein CIII [3]: −14.3 ± 10.5% | Percent Change from Baseline at Last Visit, HDL-C [3]: 5.3 ± 3.5% | Percent Change from Baseline at Last Visit, LDL-C [3]: −5.6 ± 5.2% | Percent Change from Baseline at Last Visit, NonHDL-C [3]: −11.6 ± 4.2 % | Percent Change from Baseline at Last Visit, Apolipoprotein A-I [4]: 1.3 (−11, 31) % | Percent Change from Baseline at Last Visit, Apolipoprotein B [4]: −11.7 (−33, 2) % | Percent Change from Baseline at Last Visit, TG [4]: −14.6 (−55, 18) % | Percent Change from Baseline at Last Visit, Apolipoprotein A-II [5]: 7.2 ± 2.6 % | Percent Change from Baseline at Last Visit, Apolipoprotein CIII [5]: 5.4 ± 9.0% | Percent Change from Baseline at Last Visit, HDL-C [5]: 0.5 ± 3.2% | Percent Change from Baseline at Last Visit, LDL-C [5]: −24.9 ± 4.6 % | Percent Change from Baseline at Last Visit, NonHDL-C [5]: −17.6 ± 3.8 % | Percent Change from Baseline at Last Visit, Apolipoprotein A-I [6]: 7.1 (−7, 89) % | Percent Change from Baseline at Last Visit, TG [6]: 6.4 (−45, 97) % | Percent Change from Baseline at Last Visit, Apolipoprotein A-II [7]: 6.5 ± 2.5 % | Percent Change from Baseline at Last Visit, Apolipoprotein CIII [7]: −9.5 ± 8.6% | Percent Change from Baseline at Last Visit, HDL-C [7]: 5.0 ± 3.2% | Percent Change from Baseline at Last Visit, LDL-C [7]: −15.2 ± 4.4 % | Percent Change from Baseline at Last Visit, NonHDL-C [7]: −17.9 ± 3.6 % | Percent Change from Baseline at Last Visit, Apolipoprotein A-I [8]: 5.5 (−11, 34) % | Percent Change from Baseline at Last Visit, Apolipoprotein B [8]: −15.7 (−38, 21) % | Percent Change from Baseline at Last Visit, TG [8]: −8.1 (−35, 29) % | Percent Change from Baseline at Last Visit, Apolipoprotein A-II [9]: 5.9 ± 2.7 % | Percent Change from Baseline at Last Visit, Apolipoprotein CIII [9]: −23.6 ± 5.7 % | Percent Change from Baseline at Last Visit, HDL-C [9]: 17.6 ± 3.8 % | Percent Change from Baseline at Last Visit, NonHDL-C [9]: −1.6 ± 3.6% | Percent Change from Baseline at Last Visit, Apolipoprotein B [10]: 0.0 (−29, 33) % | Percent Change from Baseline at Last Visit, Apolipoprotein E [10]: −20.0 (−52, 19) % | Percent Change from Baseline at Last Visit, LDL-C [10]: 16.4 (−26,255) % | Percent Change from Baseline at Last Visit, Apolipoprotein A-II [11]: 0.5 ± 2.6% | Percent Change from Baseline at Last Visit, Apolipoprotein CIII [11]: −30.9 ± 5.6 % | Percent Change from Baseline at Last Visit, HDL-C [11]: 12.3 ± 3.8% | Percent Change from Baseline at Last Visit, NonHDL-C [11]: −9.4 ± 3.5% | Percent Change from Baseline at Last Visit, Apolipoprotein B [12]: −6.5 (−30, 31) % | Percent Change from Baseline at Last Visit, Apolipoprotein E [12]: −37.4** % | Percent Change from Baseline at Last Visit, LDL-C [12]: 8.3 (−31, 252) % | Percent Change from Baseline at Last Visit, Apolipoprotein A-II [13]: −0.8 ± 3.0% | Percent Change from Baseline at Last Visit, Apolipoprotein CIII [13]: −6.4 ± 6.5% | Percent Change from Baseline at Last Visit, HDL-C [13]: −0.9 ± 4.1% | Percent Change from Baseline at Last Visit, NonHDL-C [13]: −10.9 ± 4.2% | Percent Change from Baseline at Last Visit, Apolipoprotein B [14]: −5.7 (−34, 54) % | Percent Change from Baseline at Last Visit, Apolipoprotein E [14]: −25.4 (−49, 18) % | Percent Change from Baseline at Last Visit, TG [14]: −12.7 (−59, 38) % | Percent Change from Baseline at Last Visit, Apolipoprotein A-II [15]: −4.8 ± 2.6% | Percent Change from Baseline at Last Visit, Apolipoprotein CIII [15]: −10.8 ± 5.6% | Percent Change from Baseline at Last Visit, HDL-C [15]: −0.9 ± 3.8% | Percent Change from Baseline at Last Visit, NonHDL-C [15]: −16.3 ± 4.3 % | Percent Change from Baseline at Last Visit, Apolipoprotein E [16]: −11.7 (−59, 65) % | Percent Change from Baseline at Last Visit, TG [16]: −9.0 % | serum HDL-C or TG levels versus placebo (patients with mean baseline TG <200 mg/dL, any dose): no significant differences | decrease in apolipoprotein C-III [17]: 23% | increase in level of apolipoprotein A-I [17]: 6% | increase in level of apolipoprotein A-II [17]: 6% | increase in serum HDL-C levels [17]: 18% | reduction of TG serum levels [17]: 27% | reduction of TG serum levels (patients with mean baseline TG≧2200 mg/dL (so in the source), 300 mg dose): 39% | serum HDL-C or TG levels versus placebo (patients with mean baseline TG≧2200 mg/dL (so in the source), doses of 600 or 900 mg): No significant differences

Reference: patent publication US20040229954A1, “Selective manipulation of triglyceride, HDL and LDL parameters with 6-(5-carboxy-5-methyl-hexyloxy)-2,2-dimethylhexanoic acid monocalcium salt” (priority 2003, published 2004)
